US20120214830A1, “BIOLOGICAL MARKERS PREDICTIVE OF ANTI-CANCER RESPONSE TO INSULIN-LIKE GROWTH FACTOR-1 RECEPTOR KINASE INHIBITORS IN HEPATOCELLULAR CARCINOMA” (OSI Pharmaceuticals, LLC, priority 2011, published 2012)

Columns and labels:
Hep 3B = experiment: Cell Titer-Glo proliferation assay, 72 h; format: cell-based; details: Homo sapiens; Hep3B cells, erlotinib alone, determined beforehand; read-out: concentration to inhibit about 50% proliferation
Protocol: (§1) Two sensitive epithelial cell lines Hep3B (A), JHH-7 (B), one insensitive epithelial cell line JHH-1(C) or one insensitive mesenchymal-like cell line HLF (D) were treated serial dilution of OSI-906 in the presence of Erlotinib for 72 hours, and sensitivity to treatment was measured by proliferation assays.
(§2) Cell lines: Twenty-one HCC cell lines were purchased from either ATCC (HepG2, Hep3B, PLC/PRF/5, SK-Hepl, SNU-182, SNU-387, SNU-398, SNU-423, SNU-449, SNU-475) or Health Science Research Resources Bank (Japan) (HUH-1, HUH-6, HUH-7, HLE, HLF, JHH-1, JHH-2, JHH-4, JHH-5, JHH-6, JHH-7). All the cell lines were maintained in media as described by the vendors. For growth inhibition assays, cells were plated and allowed to proliferate for 24 hours. After 24 hours, cells had reached approximately 15% confluency, at which time serial dilutions of OSI-906 were added and the cells grown for a further 72 hours. Cell viability was assayed using the Cell Titer-Glo reagent (Promega Corp., Madison, Wis.).
(§3) Proliferation Assay. Proliferation was assayed using Cell Titer Glo assays (Promega) and was determined 72 hours following dosing with OSI-906. The basis of the assay is a luminescent quantitation of ATP present in a cell culture plate well. In essence, the greater the number of viable cells in the well, the greater the level of ATP present. The assay utilizes a substrate that binds ATP to produce a luminescent signal, which can be read on a luminometer. Unless otherwise noted, the manufacturer's instructions were followed exactly. Briefly, on Day 1, cells were plated in 120 μl of 10% serum-containing growth media at a density of 4000 cells/well in a white polystyrene 96 well assay plate. On day 2, cells were treated with 15 μl of 10× concentration of the IGF-1R inhibitor (e.g. OSI-906) or DMSO alone for a final well volume of 150 μl. After 72 h incubation with the inhibitor, the cells were assayed. Results were calculated as a fraction of the DMSO controlled cells.

JHH-1 = experiment: Cell Titer-Glo proliferation assay, 72 h; format: cell-based; details: Homo sapiens, JHH1; JHH-1 cells, erlotinib alone, determined beforehand; read-out: concentration to inhibit about 50% proliferation
Protocol: as §1, §2, §3

[1] = tested on: ErbB3 in JHH5, HepG2, and HUH1 HCC cells; experiment: ErbB3 protein expression after TGFβ treatment; format: cell-based, human; details: data not shown
Protocol: Preparation of Protein Lysates and Western Blotting: Cells were rinsed with PBS and lysed in RIPA buffer (Sigma #R0278) containing protease and phosphatase inhibitor cocktails (Sigma #P2850, P8340, P5726). Cell lysates were cleared by centrifugation and subjected to western blotting. Antibodies included: E-cadherin (Santa Cruz #sc21791), ErbB3 (Santa Cruz #sc285), vimentin (BD Pharmingen #550513), Zebl (Santa Cruz #sc25388).
(§4) TGFβ treatment: Cells were grown in medium supplemented with 10 ng/ml TGFβ (EMD Biosciences #616450) for 10 days with replating every 3-4 days. The cells were then lysed for either RT-PCR or CELLTITER-GLO® proliferation assays (Promega, Madison, Wis.).

[2] = tested on: AFP expression in HUH-1, JHH-5 and HepG2 cells; experiment: AFP expression by RT-PCR after TGFβ treatment; format: cell-based, human; details: 10 ng/ml TGFβ for 10 days, HUH-1, JHH-5, HepG2
Protocol: FIG. 11: TGFβ decreases AFP expression and cell sensitivity to OSI-906. HUH-1, JHH-5 and HepG2 cells were treated with TGFβ and cells were either treated with OSI-906 for proliferation assays (A) or lysed to measure AFP expression by RT-PCR (B).
Taqman Assays: Total RNA was isolated with RNeasy kit (Qiagen) and treated with RNase-free DNase. Reverese transcription was performed with SuperScript III First-Strand Synthesis system (Invitrogen, Carlsbad, Calif.). The Gene Expression Assays were obtained from Applied Biosystems, Foster City, Calif. Quantitation of relative gene expression was conducted as described by the manufacturer using 50 ng of template. In order to determine relative expression across cell lines, amplification of AFP gene was compared to amplification of the gene for GAPDH as an internal standard.
as §4

Row | Molecule | IC50 (Hep 3B) [µM] | IC50 (JHH-1) [µM] | expression of the epithelial biomarker protein ErbB3 after TGFβ treatment [1] | AFP expression after TGFβ treatment [2]
1 | C#Cc1cccc(Nc2ncnc3cc(OCCOC)c(OCCOC)cc23)c1 [Erlotinib, [6,7-bis(2-methoxyethoxy)-4-quinazolin-4-yl]-(3-ethynylphenyl) amine, reference compound] | 3.3 | 0.12 |  | 
2 | TGFβ |  |  | decreased | decreased
